Experimental data as given in PubChem BioAssay AID2060486 (Molecular Pharmacology Branch, DTP, NCI, 2025).

System: IGROV1 complex spheroids (HUVEC, MSC), viability % test/control
Assay: Anticancer human tumor IGROV1 cell line growth inhibition [GQUAD];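 note: spheroids exposed to compounds for 7 days before readout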
Settings: for IC50: curve of first compound; for viability, T/C: stronger effect = lower value
Description: DNA G-quadruplex Stabilizer Agents in Combinations in Complex Spheroids
A high-throughput screen of multi-cell type tumor spheroids was designed to identify active combinations of DNA G-quadruplex stabilizer agents and targeted small molecules. Complex spheroids include a stromal component modeled by human endothelial cells (HUVEC) and fibroblasts modeled by human mesenchymal stem cells (MSCs). The concentration ranges selected for each drug and investigational agent were based upon clinically achievable concentrations if the clinical Cmax of the agent was known.
Compounds. The drugs and investigational agents: pidnarulex (CX-5461; NSC782164), APTO-253 (NSC789042), BRACO-19 (NSC847499), peposertib (NSC802822), ceralasertib (NSC780249), elimusertib (NSC800525), camonsertib (NSC841442), AZD-1390 (NSC803789), olaparib (NSC753686), talazoparib (NSC767125), ART-558 (NSC835418), sotorasib (NSC818433), MRTX-1133 (NSC836407), SN-38 (NSC673596), topotecan (NSC609699), etoposide (NSC141540), doxorubicin (NSC123127), gemcitabine (NSC613327), 5-fluorouracil (NSC19893), paclitaxel (NSC125973), vemurafenib (NSC761431), panobinostat (NSC761190), R-306465 (JNJ-16241199; NSC773264), adavosertib (NSC754352), TP-3654 (NSC805149), carboplatin (NSC241240), KSQ-4279 (NSC840948), and staurosporine (NSC755774) were obtained from the National Cancer Institute (NCI) Developmental Therapeutics Program Chemical Repository (34). The FDA-approved anticancer drug set is available from the NCI Developmental Therapeutics Program. […] The stock solutions were prepared in dimethyl sulfoxide (DMSO, Sigma-Aldrich, St. Louis, MO, cat. D2650) at 800-fold the tested concentration and stored at -70 degrees C prior to their use. All drugs and investigational agents were tested over a range starting from a high concentration at or near the clinical Cmax and decreasing in half-log increments. If the clinical Cmax for an agent had not been determined, the highest concentration tested was 10 microM.
2.3 Cell Culture. All cells were maintained in an incubator at 37 degrees C and 5% CO2 with 95% humidity. The PDC lines were cultured according to standard operating procedures established by the NCI PDMR. All PDCs were thawed and cultured in Matrigel-coated flasks prepared with a working solution of 1X Ham's F-12 nutrient mix, without supplementation (Invitrogen, cat. 11765054), 100 U/mL penicillin-streptomycin (Invitrogen, cat. 15140122), and 2.5% Matrigel (Corning Inc., cat. 354248) for the first three passages. The 857933-349-R-J2-PDC line was cultured in 6C/Colon 1B media, which includes advanced DMEM/F-12 (Thermo Fisher Scientific, cat. 12634028), 10 mM HEPES (Thermo Fisher Scientific, cat. 15630080), 1X GlutaMAX supplement (Thermo Fisher Scientific, cat. 35050061), 0.1 mg/mL primocin (InvivoGen, cat. ant-pm-2), 10% defined fetal bovine serum, heat inactivated (HyClone Laboratories Inc., cat. SH30070.03HI), 50% L-WRN conditioned media (ATCC, cat. CRL-3276), 1.25 mM N-Acetyl-L-cysteine (Sigma-Aldrich, cat. A9165), 10 mM nicotinamide (Sigma-Aldrich, cat. N0636), 1X B-27 supplement (Thermo Fisher Scientific, cat. 17504044), 1X N-2 supplement (Thermo Fisher Scientific, cat. 17502048), 10 microM Y-27632 dihydrochloride (Tocris Bioscience, cat. 1254), and 50 ng/mL human EGF recombinant protein (Thermo Fisher Scientific, cat. PHG0311). The 485176-168-R4-J1-PDC line was cultured in Panc media, which includes all 6C/Colon 1B media components plus 100 ng/mL human FGF-10 (Thermo Fisher Scientific, cat. 100-26), 500 nM SB-431542 (Selleckchem, cat. S1067), and gastrin (Tocris, cat. 3006).
[…]

[1] = second compound 0.0316 µM, first compound 0.000999 µM
[2] = second compound 0.0316 µM, first compound 0.00316 µM
[3] = second compound 0.0316 µM, first compound 0.00999 µM
[4] = second compound 0.0316 µM, first compound 0.0316 µM
[5] = second compound 0.0316 µM, first compound 0.0999 µM
[6] = second compound 0.0316 µM, first compound 0.316 µM
[7] = second compound 0.1 µM, first compound 0.000999 µM
[8] = second compound 0.1 µM, first compound 0.00316 µM
[9] = second compound 0.1 µM, first compound 0.00999 µM
[10] = second compound 0.1 µM, first compound 0.0316 µM
[11] = second compound 0.1 µM, first compound 0.0999 µM
[12] = second compound 0.1 µM, first compound 0.316 µM
[13] = second compound 0.316 µM, first compound 0.000999 µM
[14] = second compound 0.316 µM, first compound 0.00316 µM
[15] = second compound 0.316 µM, first compound 0.00999 µM
[16] = second compound 0.316 µM, first compound 0.0316 µM
[17] = second compound 0.316 µM, first compound 0.0999 µM
[18] = second compound 0.316 µM, first compound 0.316 µM
[19] = second compound 1 µM, first compound 0.000999 µM
[20] = second compound 1 µM, first compound 0.00316 µM
[21] = second compound 1 µM, first compound 0.00999 µM
[22] = second compound 1 µM, first compound 0.0316 µM
[23] = second compound 1 µM, first compound 0.0999 µM
[24] = second compound 1 µM, first compound 0.316 µM
[25] = second compound 3.16 µM, first compound 0.000999 µM
[26] = second compound 3.16 µM, first compound 0.00316 µM
[27] = second compound 3.16 µM, first compound 0.00999 µM
[28] = second compound 3.16 µM, first compound 0.0316 µM
[29] = second compound 3.16 µM, first compound 0.0999 µM
[30] = second compound 3.16 µM, first compound 0.316 µM
[31] = second compound 10 µM, first compound 0.000999 µM
[32] = second compound 10 µM, first compound 0.00316 µM
[33] = second compound 10 µM, first compound 0.00999 µM
[34] = second compound 10 µM, first compound 0.0316 µM
[35] = second compound 10 µM, first compound 0.0999 µM
[36] = second compound 10 µM, first compound 0.316 µM

Work on `CC[C@@]1(O)C(=O)OCc2c1cc1n(c2=O)Cc2cc3c(CN(C)C)c(O)ccc3nc2-1` + CN(C)c1ccc(Nc2c3ccc(NC(=O)CCN4CCCC4)cc3nc3cc(NC(=O)CCN4CCCC4)ccc23)cc1 yielded an IC50 (second compound 0.0316 µM) of 0.0221 µM, an IC50 (second compound 0.1 µM) of 0.0245 µM and an IC50 (second compound 0.316 µM) of 0.025 µM. It also gave an IC50 (second compound 1 µM) of 0.0228 µM, an IC50 (second compound 3.16 µM) of 0.0293 µM and an IC50 (second compound 10 µM) of under 0.000999 µM. It also gave a viability, T/C [1] of 98.2%, a viability, T/C [2] of 95.7% and a viability, T/C [3] of 93.1%. It also gave a viability, T/C [4] of 30.5%, a viability, T/C [5] of 12.2% and a viability, T/C [6] of 10.9%. For the same molecule, the viability, T/C [7] was 98.1%, the viability, T/C [8] was 87.8% and the viability, T/C [9] was 86%. For the same molecule, the viability, T/C [10] was 39.7%, the viability, T/C [11] was 13.5% and the viability, T/C [12] was 9.48%. It also gave a viability, T/C [13] of 94.5%, a viability, T/C [14] of 87.5% and a viability, T/C [15] of 91.8%. It also gave a viability, T/C [16] of 39.4%, a viability, T/C [17] of 12.4% and a viability, T/C [18] of 12.2%. It also gave a viability, T/C [19] of 87.5%, a viability, T/C [20] of 81.7% and a viability, T/C [21] of 75.9%. It also gave a viability, T/C [22] of 40.5%, a viability, T/C [23] of 9.84% and a viability, T/C [24] of 12.7%. It also gave a viability, T/C [25] of 70.5%, a viability, T/C [26] of 89.4% and a viability, T/C [27] of 77.4%. It also gave a viability, T/C [28] of 48.1%, a viability, T/C [29] of 13.5% and a viability, T/C [30] of 10.8%. It also gave a viability, T/C [31] of 42.9%, a viability, T/C [32] of 35% and a viability, T/C [33] of 37%. The viability, T/C [34] was 19.1%, the viability, T/C [35] was 9.45% and the viability, T/C [36] was 6.49%.
For `CCc1c2c(nc3ccc(O)cc13)-c1cc3c(c(=O)n1C2)COC(=O)[C@]3(O)CC` + CN(C)c1ccc(Nc2c3ccc(NC(=O)CCN4CCCC4)cc3nc3cc(NC(=O)CCN4CCCC4)ccc23)cc1, the IC50 (second compound 0.0316 µM) was 0.00122 µM, the IC50 (second compound 0.1 µM) was 0.00105 µM and the IC50 (second compound 0.316 µM) was under 0.000999 µM. It also gave an IC50 (second compound 1 µM) of under 0.000999 µM, an IC50 (second compound 3.16 µM) of under 0.000999 µM and an IC50 (second compound 10 µM) of under 0.000999 µM. It also gave a viability, T/C [1] of 57.5%, a viability, T/C [2] of 15.8% and a viability, T/C [3] of 11.4%. For the same molecule, the viability, T/C [4] was 7.01%, the viability, T/C [5] was 5.52% and the viability, T/C [6] was 1.54%. For the same molecule, the viability, T/C [7] was 51.9%, the viability, T/C [8] was 15.3% and the viability, T/C [9] was 11.3%. It also gave a viability, T/C [10] of 8.79%, a viability, T/C [11] of 5.38% and a viability, T/C [12] of 1.47%. It also gave a viability, T/C [13] of 49.7%, a viability, T/C [14] of 16.7% and a viability, T/C [15] of 9.1%. The viability, T/C [16] was 8.69%, the viability, T/C [17] was 3.87% and the viability, T/C [18] was 1.5%. The viability, T/C [19] was 49.5%, the viability, T/C [20] was 13.7% and the viability, T/C [21] was 9.93%. For the same molecule, the viability, T/C [22] was 8.16%, the viability, T/C [23] was 5.08% and the viability, T/C [24] was 2.04%. For the same molecule, the viability, T/C [25] was 42.3%, the viability, T/C [26] was 11.4% and the viability, T/C [27] was 8.41%. It also gave a viability, T/C [28] of 8.25%, a viability, T/C [29] of 5.52% and a viability, T/C [30] of 1.58%. It also gave a viability, T/C [31] of 20.3%, a viability, T/C [32] of 10.7% and a viability, T/C [33] of 9.09%. For the same molecule, the viability, T/C [34] was 5.5%, the viability, T/C [35] was 2.71% and the viability, T/C [36] was 2.02%.
